According to ChEMBL document CHEMBL2203207, “Inhibition of monoamine oxidase by derivatives of piperine, an alkaloid from the pepper plant Piper nigrum, for possible use in Parkinson's disease” (Bioorg Med Chem Lett, 2012):

Key:
[1] = target: T1, Amine oxidase [flavin-containing] B (Homo sapiens, UniProt P27338); test: Inhibition of MAO-B assessed as inhibition of kyneuramine conversion to 4-hydroxyquinoline after 20 mins by fluorescence assay
T1 sequence (P27338 whole entry): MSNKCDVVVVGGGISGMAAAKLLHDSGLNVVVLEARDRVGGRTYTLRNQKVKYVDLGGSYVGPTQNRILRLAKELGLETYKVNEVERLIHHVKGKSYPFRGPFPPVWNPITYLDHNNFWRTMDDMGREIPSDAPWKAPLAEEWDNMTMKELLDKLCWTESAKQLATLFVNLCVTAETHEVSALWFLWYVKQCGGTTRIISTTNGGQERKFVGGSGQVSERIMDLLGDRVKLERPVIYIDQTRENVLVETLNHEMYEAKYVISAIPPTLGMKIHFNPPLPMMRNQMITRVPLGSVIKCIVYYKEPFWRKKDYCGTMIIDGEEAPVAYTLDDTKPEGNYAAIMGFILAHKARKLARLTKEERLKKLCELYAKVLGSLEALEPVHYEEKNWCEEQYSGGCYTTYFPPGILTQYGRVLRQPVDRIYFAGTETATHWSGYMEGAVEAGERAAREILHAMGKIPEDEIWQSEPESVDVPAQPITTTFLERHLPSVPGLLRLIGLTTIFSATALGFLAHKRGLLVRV

[2] = target: T2, Amine oxidase [flavin-containing] A (Homo sapiens, UniProt P21397); test: Inhibition of MAO-A assessed as inhibition of kyneuramine conversion to 4-hydroxyquinoline after 20 mins by fluorescence assay
T2 sequence (P21397 whole entry): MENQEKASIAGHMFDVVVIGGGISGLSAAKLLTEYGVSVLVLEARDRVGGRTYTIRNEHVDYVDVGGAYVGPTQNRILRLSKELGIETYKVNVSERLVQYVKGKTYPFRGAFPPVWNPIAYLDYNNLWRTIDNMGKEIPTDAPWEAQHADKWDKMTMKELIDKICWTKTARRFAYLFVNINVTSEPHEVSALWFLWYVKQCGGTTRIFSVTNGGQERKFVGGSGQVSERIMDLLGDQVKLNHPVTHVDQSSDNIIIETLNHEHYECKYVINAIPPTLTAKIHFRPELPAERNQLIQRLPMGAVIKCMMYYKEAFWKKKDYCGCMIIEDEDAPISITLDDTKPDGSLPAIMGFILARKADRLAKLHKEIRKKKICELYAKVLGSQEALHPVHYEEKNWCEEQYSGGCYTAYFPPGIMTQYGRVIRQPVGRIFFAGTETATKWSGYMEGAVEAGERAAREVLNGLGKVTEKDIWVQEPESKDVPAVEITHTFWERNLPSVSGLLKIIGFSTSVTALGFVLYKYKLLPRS

Albumin [3] = target: T3, Albumin (Bos taurus, UniProt P02769); test: Binding affinity to bovine serum albumin at 16 uM by fluorescence assay; assay type: ADME; conditions: cattle, isolated protein
Albumin [4] = target: T3, Albumin; test: Binding affinity to bovine serum albumin at 8.9 uM by fluorescence assay; assay type: ADME; conditions: cattle, isolated protein

T3 sequence (P02769 whole entry): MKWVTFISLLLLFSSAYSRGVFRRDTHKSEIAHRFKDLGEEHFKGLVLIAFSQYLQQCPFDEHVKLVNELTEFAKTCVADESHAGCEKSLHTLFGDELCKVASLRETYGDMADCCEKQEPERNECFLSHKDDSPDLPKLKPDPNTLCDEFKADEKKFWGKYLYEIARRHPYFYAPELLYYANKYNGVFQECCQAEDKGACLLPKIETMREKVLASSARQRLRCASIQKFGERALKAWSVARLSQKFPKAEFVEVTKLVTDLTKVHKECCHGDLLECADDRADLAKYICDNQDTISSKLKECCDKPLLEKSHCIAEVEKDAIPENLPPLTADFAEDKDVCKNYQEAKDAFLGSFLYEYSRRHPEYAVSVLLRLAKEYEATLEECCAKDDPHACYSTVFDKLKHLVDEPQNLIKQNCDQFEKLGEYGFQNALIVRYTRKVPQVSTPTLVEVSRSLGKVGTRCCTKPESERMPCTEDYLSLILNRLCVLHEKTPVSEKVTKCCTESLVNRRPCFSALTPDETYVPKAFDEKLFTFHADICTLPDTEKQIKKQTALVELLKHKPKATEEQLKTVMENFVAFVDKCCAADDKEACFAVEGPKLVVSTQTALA

Molecule `O=C(/C=C/c1ccc2c(c1)OCO2)N1CCOCC1` has an IC50 [1] of 6.39 µM and an IC50 [2] greater than 100 µM.
Work on `S=C(c1ccc2c(c1)OCO2)N1CCCCC1` yielded an IC50 [1] of 15.4 µM and an IC50 [2] greater than 100 µM.
For `O=C(/C=C/c1ccc2c(c1)OCO2)NC1CCCC1`, the IC50 [1] was 1.13 µM and the IC50 [2] was greater than 100 µM.
For `O=C(CCN1CCCCC1)c1ccc2c(c1)OCO2`, the IC50 [1] was 3.43 µM and the IC50 [2] was greater than 100 µM.
`O=C(CN1CCCCC1)c1ccc2c(c1)OCO2` gave an IC50 [1] of 3.18 µM and an IC50 [2] greater than 100 µM.
For `O=C(/C=C/c1ccc2c(c1)OCO2)NC1CCCCC1`, the IC50 [1] was 0.666 µM and the IC50 [2] was greater than 100 µM.
In the case of `CC1CCN(C(=O)/C=C/c2ccc3c(c2)OCO3)CC1`, the IC50 [1] is reported as 0.497 µM, the IC50 [2] is reported as greater than 100 µM and the Activity (Albumin [3]) is reported as 50%.
Work on `O=C(/C=C/c1ccc2c(c1)OCO2)N1CCCC1` yielded an IC50 [1] of 4.89 µM and an IC50 [2] greater than 100 µM.
Molecule `O=C(c1ccc2c(c1)OCO2)N1CCCCCC1` has an IC50 [1] greater than 100 µM and an IC50 [2] greater than 100 µM.
In the case of `O=C(/C=C/C=C/c1ccc2c(c1)OCO2)N1CCCCC1` [PIPERINE], the Activity (Albumin [4]) is reported as 50%, the IC50 [1] is reported as 0.483 µM and the IC50 [2] is reported as 59 µM.
